Reference: patent US12370143B2, “Compound or salt thereof and lipid particles” (FUJIFILM Corporation, priority 2018, dated 2025)

Key:
[1] = Particle size of nucleic acid lipid particles (Luc2-siRNA); format: physicochemical; settings: compound/DSPC/cholesterol/DMG-PEG2000 50/10/38.5/1.5
Experimental: By using the dispersion liquid of lipid particles as it was, the particle size of the lipid particles was measured using a zeta potential/particle size measurement system ELS-Z2 (Otsuka Electronics Co., Ltd.).
(§1) The compounds described in Table 2, L-α-distearoylphosphatidylcholine (trade name: COATSOME® MC-8080; NOF corporation), cholesterol (trade name: Choesterol HP; NIPPON FINE CHEMICAL CO., LTD.), and 1,2-dimyristoyl-rac-glycero-3-(methylpolyoxyethylene 2000) (hereinafter, called DMG-PEG2000) (trade name: SUNBRIGHT® GM-020; NOF corporation) were dissolved in ethanol at a molar ratio of 50/10/38.5/1.5 such that the total lipid concentration became 20 mmol/L, thereby obtaining an oil phase.
(§2) An aqueous nucleic acid solution obtained by dissolving 5 mg of Luc2-siRNA having the sequence described in Biomacromolecules (2013) 14, p. 3905 in 1 mL of sterile water was diluted with 10 mmol/L acetate buffer having a pH 4 such that the nucleic acid concentration became 19.7 μmol/L, thereby obtaining a water phase. Then, the water phase and the oil phase were mixed together by a micromixer (see JP5288254B) using a syringe pump such that the volume ratio of water phase:oil phase became 3:1 (final ratio of siRNA/lipid=339 (mol/mol)), and the mixed solution was diluted 2× with PBS, thereby obtaining a dispersion liquid of nucleic acid lipid particles. The dispersion liquid was dialyzed (Slide-A-Lyzer G2, MWCO: 10 kD, Thermo Fisher Scientific) using a phosphate buffered saline such that ethanol was removed, thereby obtaining nucleic acid lipid particles.
The particle size of the nucleic acid lipid particles was measured by the same method as that in <Preparation of lipid particles>.

[2] = Encapsulation rate of siRNA in nucleic acid lipid particles (Luc2-siRNA); format: physicochemical; settings: compound/DSPC/cholesterol/DMG-PEG2000 50/10/38.5/1.5
Experimental: as §1, §2
A 3 mol/L aqueous sodium acetate solution (30 μL) and 9 μL of glycogen were added to 60 μL of the lipid particles retaining nucleic acids, and then 1.5 mL of ethanol was added thereto such that only the nucleic acids were precipitated while the lipid was dissolved. Then, the supernatant was removed by centrifugation. After the precipitates were air-dried for 15 minutes or longer, water was added thereto such that the precipitates were redissolved, and the concentration thereof was measured using Nanodrop NF1000 (Thermo Fisher Scientific), thereby quantifying the total nucleic acid concentration.
The nucleic acid concentration was quantified using a Quant-iT RiboGreen RNA Assay Kit (Thermo Fisher Scientific) according to the protocol. First, a 20×TE buffer included in the above kit was diluted with water, thereby obtaining a 1×TE buffer. TE represents Tris/EDTA (ethylenediaminetetraacetic acid). In order to quantify only the nucleic acid in the outer water phase, the dispersion liquid of lipid particles retaining nucleic acids was diluted 10,000× with the 1×TE buffer.
The 10,000× diluted dispersion liquid of lipid particles (100 μL) was put in a 96-well plate, then 100 μL of a RiboGreen reagent (reagent included in the Quanti-iT Ribogreen RNA Assay Kit described above) diluted 2000× with the 1×TE buffer was added to a sample, and fluorescence (excitation wavelength: 485 nm, fluorescence wavelength: 535 nm) was measured using a plate reader Infinit EF200 (TECAN), thereby quantifying the nucleic acid concentration in the outer water phase.
By using the total nucleic acid concentration obtained through the above steps and the quantified nucleic acid concentration in the outer water phase, the nucleic acid encapsulation rate of the nucleic acid lipid particles was calculated according to the following Equation. Nucleic acid encapsulation rate (%)=(total nucleic acid concentration−nucleic acid concentration in outer water phase)/total nucleic acid concentration×100 The results are shown in Table 2.

Row | SMILES | Particle size (nm) [1] [nm] | Nucleic acid encapsulation rate [2] [%]
1 | CCCCC/C=C\C/C=C\CCCCCCCCN(CCCCCCCC/C=C\C/C=C\CCCCC)C(=O)OCCCN(C)CCN(C)C [Example 2, 3-((2-(Dimethylamino)ethyl)(methyl)amino)propyl di((9Z,12Z)-octadeca-9,12-dien-1-yl)carbamate] | 80.5 | 78
2 | CCCCC/C=C\C/C=C\CCCCCCCCN(CCCCCCCC/C=C\C/C=C\CCCCC)C(=O)OCCN(C)CCN1CCOCC1 [Example 5, 2-(Methyl(2-morpholinoethyl)amino)ethyl di((9Z,12Z)-octadeca-9,12-diene-1-yl)carbamate] | 73.8 | 78
3 | CCCCC/C=C\C/C=C\CCCCCCCCN(CCCCCCCC/C=C\C/C=C\CCCCC)C(=O)OCCN(CC)CCN1CCOCC1 [Example 6, 2-(Ethyl(2-morpholinoethyl)amino)ethyl di((9Z,12Z)-octadeca-9,12-dien-1-yl)carbamate] | 113.5 | 78
4 | CCCCC/C=C\C/C=C\CCCCCCCCN(CCCCCCCC/C=C\C/C=C\CCCCC)C(=O)OCCN(C)CCCN(C)C [Example 8, 2-((3-(Dimethylamino)propyl)(methyl)amino)ethyl di((9Z,12Z)-octadeca-9,12-dien-1-yl)carbamate] | 81.4 | 83
5 | CCCCCC/C=C\COC(=O)CCCCCCCN(CCCCCCCC(=O)OC/C=C\CCCCCC)C(=O)OCCN(C)CCN(C)C [Example 11, (Z)-non-2-en-1-yl 2,5-dimethyl-10-(8-(((Z)-non-2-en-1-yl)oxy)-8-oxooctyl)-9-oxo-8-oxa-2,5,10-triazaoctadecan-18-oate] | 217.2 | 84
6 | CCCCCC/C=C/COC(=O)CCCCCCCN(CCCCCCCC(=O)OC/C=C/CCCCCC)C(=O)OCCN(C)CCN(C)C [Example 12, (E)-non-2-en-1-yl 2,5-dimethyl-10-(8-(((E)-non-2-en-1-yl)oxy)-8-oxooctyl)-9-oxo-8-oxa-2,5,10-triazaoctadecan-18-oate] | 254.2 | 100
7 | CCCCCCCCCOC(=O)CCCCCCCN(CCCCCCCC(=O)OCCCCCCCCC)C(=O)OCCN(C)CCN(C)C [Example 13, Nonyl 2,5-dimethyl-10-(8-(nonyloxy)-8-oxooctyl)-9-oxo-8-oxa-2,5,10-triazaoctadecan-18-oate] | 140.3 | 88
8 | CCCCCC/C=C\COC(=O)OCCCCCCN(CCCCCCOC(=O)OC/C=C\CCCCCC)C(=O)OCCN(C)CCN(C)C [Example 14, 2-((2-(Dimethylamino)ethyl)(methyl)amino)ethyl bis(6-(((((Z)-non-2-en-1-yl)oxy)carbonyl)oxy)hexyl)carbamate] | 219.0 | 76
9 | CCCCCCCC/C=C\CCCCCCCCN(CCCCCCCCC)C(=O)OCCN(C)CCN(C)C [Example 15, 2-((2-(Dimethylamino)ethyl)(methyl)amino)ethyl(Z)-nonyl(octadec-9-en-1-yl)carbamate] | 122.8 | 83
10 | CCCCC/C=C\C/C=C\CCCCCCCCN(CCCCCCCCC)C(=O)OCCN(C)CCN(C)C [Example 16, 2-((2-(Dimethylamino)ethyl)(methyl)amino)ethyl nonyl((9Z,12Z)-octadeca-9,12-dien-1-yl)carbamate] | 113.4 | 90
11 | CCCCC/C=C\C/C=C\CCCCCCCCC(CCCCCCCC/C=C\C/C=C\CCCCC)OC(=O)OCCN(C)CCN1CCOCC1 [Example 21, 2-(Methyl(2-morpholinoethyl)amino)ethyl((6Z,9Z,28Z,31Z)-heptatriaconta-6,9,28,31-tetraen-19-yl)carbonate] | 78.0 | 78
12 | CCCCC/C=C\C/C=C\CCCCCCCCC(CCCCCCCC/C=C\C/C=C\CCCCC)OC(=O)OCCN(CC)CCN1CCOCC1 [Example 22, 2-(Ethyl(2-morpholinoethyl)amino)ethyl((6Z,9Z,28Z,31Z)-heptatriaconta-6,9,28,31-tetraen-19-yl)carbonate] | 69.3 | 69
13 | CCCCC/C=C\C/C=C\CCCCCCCCC(CCCCCCCC/C=C\C/C=C\CCCCC)OC(=O)OCCN(CCO)CCN(C)C [Example 28] | 76.4 | 75
14 | CCCCC/C=C\C/C=C\CCCCCCCCC(CCCCCCCC/C=C\C/C=C\CCCCC)OC(=O)OCCN(CCN(C)C)C1CCCCC1 [Example 32, 2-(Cyclohexyl(2-(dimethylamino)ethyl)amino)ethyl((6Z,9Z,28Z,31Z)-heptatriaconta-6,9,28,31-tetraen-19-yl)carbonate] | 71.6 | 78
15 | CCCCC/C=C\C/C=C\CCCCCCCC(=O)OCC(COC(=O)CCCCCCC/C=C\C/C=C\CCCCC)OC(=O)OCCN(CC)CCN(C)C [Example 35, 2-(((2-((2-(Dimethylamino)ethyl)(ethyl)amino)ethoxy)carbonyl)oxy)propane-1,3-diyl(9Z,9′Z,12Z,12′Z)-bis(octadeca-9,12-dienoate)] | 80.1 | 87
16 | CCCCC/C=C\C/C=C\CCCCCCCCC(CCCCCCCC/C=C\C/C=C\CCCCC)OC(=O)OCCN(CCCC)CCN(CC)CC [Example 39, 2-(Butyl(2-(diethylamino)ethyl)amino)ethyl((6Z,9Z,28Z,31Z)-heptatriaconta-6,9,28,31-tetraen-19-yl)carbonate] | 78.3 | 88
17 | CCCCC/C=C\C/C=C\CCCCCCCCC(CCCCCCCC/C=C\C/C=C\CCCCC)OC(=O)OCCN(CCC)CCN(CC)CC [Example 44, 2-((2-(Diethylamino)ethyl)(propyl)amino)ethyl((6Z,9Z,28Z,31Z)-heptatriaconta-6,9,28,31-tetraen-19-yl)carbonate] | 69.4 | 59
18 | CCCCC/C=C\C/C=C\CCCCCCCCC(CCCCCCCC/C=C\C/C=C\CCCCC)OC(=O)OCCN(CC)CCN(CCC)CCC [Example 49, 2-((2-(Dipropylamino)ethyl)(ethyl)amino)ethyl((6Z,9Z,28Z,31Z)-heptatriaconta-6,9,28,31-tetraen-19-yl)carbonate] | 74.3 | 80
19 | CCCCCCCCC1CC1CCCCCCCC(=O)OCCCCCCC(CCCCCCOC(=O)CCCCCCCC1CC1CCCCCCCC)OC(=O)OCCN(CC)CCN(CC)CC (stereo not shown) [Example 57] | 77.9 | 79
20 | CCCCC/C=C\C/C=C\CCCCCCCCC(CCCCCCCC/C=C\C/C=C\CCCCC)OC(=O)OCCN(CCN(C)CCC)C(C)C [Example 63, (6Z, 9Z, 28Z, 31Z)-heptatriaconta-6,9,28,31-tetraen-19-yl(2-(isopropyl(2-(methyl(propyl)amino)ethyl)amino)ethyl)carbonate] | 65.8 | 79
21 | CCCCC/C=C\C/C=C\CCCCCCCCC(CCCCCCCC/C=C\C/C=C\CCCCC)OC(=O)OCCN(CCN(C)CC)C(C)(C)C [Example 79, 2-(tert-Butyl(2-(ethyl(methyl)amino)ethyl)amino)ethyl((6Z,9Z,28Z,31Z)-heptatriaconta-6,9,28,31-tetraen-19-yl)carbonate] | 65.5 | 81
22 | CCCCCCC(CCCC)COC(=O)CCCC(CCCCCC)OC(=O)OCCN(CC)CCN(CC)CC (stereo not shown) [Example 80, 2-butyloctyl 3,6-diethyl-12-hexyl-10-oxo-9,11-dioxa-3,6-diazahexadecan-16-oate] | 98.7 | 61
23 | CCCCCCC(CCCC)COC(=O)CCCC(CCCCCC)OC(=O)OCCN(CCN(CC)CC)C(C)C (stereo not shown) [Example 81, 2-Butyloctyl 3-ethyl-12-hexyl-6-isopropyl-10-oxo-9,11-dioxa-3,6-diazahexadecan-16-oate] | 102.6 | 49
